Data published in article PMC7970304, “The Effects of Apelin and Elabela Ligands on Apelin Receptor Distinct Signaling Profiles” (Frontiers in Pharmacology, 2021).

Key:
Type in all cases: cell-based
APJ–GRK2 interaction = assay: BRET recruitment of GRK2 to APJ; conditions: for log (τ/KA) / Δlog (τ/KA): APJ-GRK2; for log (τ/KA): Black–Leff operational model; for Δlog (τ/KA): relative to Apelin-13; for Bias factor / Log (Bias): APJ-GRK2 over Ca2+, reference Apelin-13; for Log (Bias): footnote a = statistically insignificant
Experimental: (§1) To detect the potencies of different peptide ligands for APJ in living cells, real-time kinetic bioluminescence resonance energy transfer (BRET) assays were carried out as follows. HEK293 cells were grown to 80–90% confluence in 24-well plates and transiently transfected with various Rluc-, EYFP-, or Venus-tagged constructs ([Chen et al., 2014]; [Liu et al., 2016]). Approximately 36 h after transfection, the long-acting luciferase substrate EnduRen (E6481, Promega, Beijing Biotech Co., Ltd.) was added to each well at a final concentration of 60 μM and cells were incubated for 2 h at 37°C in a 5% CO2 incubator. BRET experiments were carried out using a Mithras LB941 plate reader (Berthold Technologies, Bad Wildbad, Germany) with three filters: a Rluc filter (400–475 nm), a Venus filter (515–575 nm) and an EGFP filter (500–550 nm) ([Liu et al., 2016]; [Ji et al., 2017]). The BRET ratio was calculated as the ratio of the emission at 535 ± 30 nm to that at 485 ± 20 nm. The results are expressed as the mBRET (mBRET = 1,000 × BRET ratio) ([Pfleger et al., 2006a]; [Pfleger et al., 2006b]). We use high glucose as a negative control group.
(§2) HEK293 cells were transiently co-transfected with the designated Rluc and GFP2 or Venus or EYFP-labeled constructs. Twenty-four hours after transfection, the cells were harvested in phenol red free medium containing 5% FCS in HEPES buffer and seeded in 96 well white microplate coated with poly-D-lysine. After 24 h, cells were washed twice in PBS and re-suspended in PBS containing 0.5 mM MgCl2 and 0.1% glucose. Coelenterazine h substrate was added at a final concentration of 5 μM in the total volume of 50 μL/well. Kinetic-response and dose-response curve of the recruitment of GRKs or β-arrestin 1 and β-arrestin 2 or AP2 to the APJ by six peptides measured by BRET. […] The BRET signals between receptor and GRKs/β-arrestin1 and 2/AP2 were recorded at 10 min (GRK2/5) or 15 min (β-arrestin1 and) or 30 min (AP2) after agonist stimulation. We use high glucose as a control group. BRET assays were performed as described previously ([Xue et al., 2018]). […] This signal is defined as the ligand induced BRET ratio.
(§3) The concentration-response data for the ligands in various assays were analyzed to determine the biases of the ligands for G protein dependent signaling or β-arrestin dependent signaling, according to a previously published method ([Kenakin et al., 2012]; [Hager et al., 2016]; [Hothersall et al., 2017]). Briefly, the concentration-response data for each ligand were fitted to the Black–Leff operation model to obtain the values of τ and K A, using the following equation: Response=[A]^nτ^nEm/[A]^nτ^n+([A]KA)^n where [A] is the concentration of the agonist, E m is the maximal response of the system, n is the transducer slope, and K A and τ describe the affinity and efficacy of the agonist, respectively. In the data fitting, the reparametrized form of the equation proposed by [Kenakin et al. (2012)] was used: Response=Em/1+exp{nln[1+exp(β1)/[A]]−nβ2} where β 1 and β 2 are the natural logarithm of K A and τ, respectively, and E m was set to 1. Thus, for each concentration-response curve, a non-linear regression was performed to fit the above equation to give β 1 and β 2 (as well as n). Log (τ/K A) values (“transduction coefficients”) for each ligand vs. each pathway were obtained. […] The ΔΔlog (τ/K A), or Log (Bias), which is the logarithm of the bias factor for a given pathway over a reference pathway (here, intracellular calcium release), was calculated for each ligand as Δlog (τ/K A)–Δlog (τ/K A)Calcium. The 95% confidence interval (CI) was expressed as the mean ± standard error; Log (Bias) values, whose 95% CI crosses 0, were considered statistically insignificant.
(§4) The data were analyzed using GraphPad Prism v5.0. All the data are presented as the mean ± SEM.

APJ–GRK5 interaction = assay: BRET recruitment of GRK5 to APJ; conditions: for log (τ/KA) / Δlog (τ/KA): GRK5; for log (τ/KA): Black–Leff operational model; for Δlog (τ/KA): relative to Apelin-13; for Bias factor / Log (Bias): GRK5 over Ca2+, reference Apelin-13; for Log (Bias): footnote a = statistically insignificant
Experimental: as §1, §2, §3, §4

[1] = system: APJ (Apelin receptor); ERK1/2 phosphorylation; assay: ERK1/2 activation assay, Western blot; conditions: for Bias factor / Log (Bias): WB-ERK over Ca2+, reference Apelin-13; for Log (Bias): footnote a = statistically insignificant; for log (τ/KA) / Δlog (τ/KA): WB-ERK; for log (τ/KA): Black–Leff operational model; for Δlog (τ/KA): relative to Apelin-13
Experimental: HEK293 cells expressing APJ were spilt into 6-well plates at a density of 10^5 cells per well and cultured until reaching approximately 90% confluence. The cells were treated with different concentrations of peptide ligands (0.01–1,000 nM). The cells were washed twice with Phosphate-buffered saline (PBS) and lyzed in RIPA lysis buffer (50 mm Tris–HCl, pH 7.41, 50 mM NaCl, 1 mM EDTA, 10 mM MgCl2, 1 mM DTT, 1 mM PMSF, 1 μg/ml […], […]), 1.4 μg/ml […] and 0.5% (v/v) NP-40). After centrifugation at 14,000 rpm at 4°C for 30 min, the supernatant was collected and separated by 10% SDS-PAGE. Gel transfer takes about 60 min at 250 mA. The nitrocellulose membrane was sealed with 5% skim milk dissolved in 0.1% Triton X-100 of PBS. The primary ERK1/2 antibody was diluted with 5% bovine serum albumin (BSA) at 1:2,000, and the second antibody was diluted with 1:5,000. The ECL reagent was applied to the membrane. The films were scanned by Vanoscan Lide 700F scanner and analyzed by scion image software. The dose-response curve was fitted using the data detected at 5 min after stimulation.
as §3
The data were analyzed using GraphPad Prism v5.0. All the data are presented as the mean ± SEM. Differences between groups were compared by one-way analysis of variants (ANOVA), followed by post-hoc tests (Tukey’s test), When p < 0.05, the difference was considered significant. All experiments were repeated at least four times. The dose-response curves were generated using non-linear fitting model log (agonist) vs. response (three-parameters), with Hill Slope held to 1, i.e., Y = Bottom + (Top-Bottom)/(1 + 10^(LogEC50-X)).
FIGURE 4 Changes of ERK1/2 phosphorylation in HEK293 cells with stable expression of APJ: (A–F) after 5-min stimulation by the six agonists in different concentrations (0.01–1,000 nM) (G and H) ERK was measured after 5 or 15 min stimulation with six peptides at a concentration of 100 nM. Levels of p-ERK, total ERK were determined by Western blot. The data represent means ± SEM of four independent experiments.

With `CSCC[C@H](NC(=O)[C@@H](NC(=O)[C@H](CC(C)C)NC(=O)[C@H](CC(N)=O)NC(=O)[C@@H](NC(=O)[C@@H]1CCCN1C(=O)[C@H](CCCNC(=N)N)NC(=O)[C@@H](N)CCC(N)=O)C(C)C)[C@@H](C)O)C(=O)N[C@@H](CCCNC(=N)N)C(=O)N[C@@H](CCCNC(=N)N)C(=O)N[C@@H](CCCCN)C(=O)N[C@@H](CC(C)C)C(=O)N[C@@H](CCCNC(=N)N)C(=O)N[C@@H](CCCCN)C(=O)N[C@@H](Cc1c[nH]cn1)C(=O)N[C@@H](CC(N)=O)C(=O)N[C@H]1CSSC[C@@H](C(=O)N[C@@H](CCSC)C(=O)N2CCC[C@H]2C(=O)N[C@@H](CC(C)C)C(=O)N[C@@H](Cc2c[nH]cn2)C(=O)N[C@@H](CO)C(=O)N[C@@H](CCCNC(=N)N)C(=O)N[C@H](C(=O)N2CCC[C@H]2C(=O)N[C@@H](Cc2ccccc2)C(=O)N2CCC[C@H]2C(=O)O)C(C)C)NC(=O)[C@H](CCCNC(=N)N)NC(=O)[C@H](CCCNC(=N)N)NC(=O)[C@H](CCC(N)=O)NC(=O)[C@H](CC(C)C)NC1=O` [Elabela-32] the “log (τ/KA)” value (APJ–GRK2 interaction) was −0.8 ± 0.2, the “Δlog (τ/KA)” value (APJ–GRK2 interaction) was 1.3 ± 0.3 and the Bias factor (APJ–GRK2 interaction) was 1,604.0. For the same compound, the “Log (Bias)” value (APJ–GRK2 interaction) was 3.2, the “Log (Bias)” value (APJ–GRK2 interaction; listed as ELA-32) was 3.2 ± 0.4 and the “bias over calcium release” value (APJ–GRK2 interaction; APJ–GRK2) was > 1,500 fold. For the same compound, the “bias over calcium release” value (APJ–GRK5 interaction; APJ–GRK5) was > 6,000 fold, the “log (τ/KA)” value (APJ–GRK5 interaction) was −0.3 ± 0.3 and the “Δlog (τ/KA)” value (APJ–GRK5 interaction) was 2.1 ± 0.4. For the same compound, the Bias factor (APJ–GRK5 interaction) was 8,921.8, the “Log (Bias)” value (APJ–GRK5 interaction) was 4.0 and the “Log (Bias)” value (APJ–GRK5 interaction; listed as ELA-32) was 4.0 ± 0.5. The Bias factor [1] was 3.0, the “Log (Bias)” value [1] was 0.5 ± 0.3 and the “log (τ/KA)” value [1] was −1.3 ± 0.2. For the same compound, the “Δlog (τ/KA)” value [1] was −1.4 ± 0.2.
For `CSCC[C@H](NC(=O)[C@@H]1CSSC[C@H](NC(=O)[C@H](CC(N)=O)NC(=O)[C@H](Cc2c[nH]cn2)NC(=O)[C@H](CCCCN)NC(=O)[C@H](CCCNC(=N)N)NC(=O)[C@@H](N)CC(C)C)C(=O)N[C@@H](CC(C)C)C(=O)N[C@@H](CCC(N)=O)C(=O)N[C@@H](CCCNC(=N)N)C(=O)N[C@@H](CCCNC(=N)N)C(=O)N1)C(=O)N1CCC[C@H]1C(=O)N[C@@H](CC(C)C)C(=O)N[C@@H](Cc1c[nH]cn1)C(=O)N[C@@H](CO)C(=O)N[C@@H](CCCNC(=N)N)C(=O)N[C@H](C(=O)N1CCC[C@H]1C(=O)N[C@@H](Cc1ccccc1)C(=O)N1CCC[C@H]1C(=O)O)C(C)C` [Elabela-21], the “log (τ/KA)” value (APJ–GRK2 interaction) was −1.5 ± 0.2, the “Δlog (τ/KA)” value (APJ–GRK2 interaction) was 0.6 ± 0.3 and the Bias factor (APJ–GRK2 interaction) was 169.0. The “Log (Bias)” value (APJ–GRK2 interaction) was 2.2 ± 0.4, the “log (τ/KA)” value (APJ–GRK5 interaction) was −1.9 ± 0.3 and the “Δlog (τ/KA)” value (APJ–GRK5 interaction) was 0.5 ± 0.4. For the same compound, the Bias factor (APJ–GRK5 interaction) was 124.1, the “Log (Bias)” value (APJ–GRK5 interaction) was 2.1 ± 0.5 and the “ERK1/2 phosphorylation (in words)” value ([1]; 100 nM, 15 min) was “significantly higher than the activation of ERK1/2 by the other ligands”. For the same compound, the “bias over calcium release” value ([1]; ERK pathway) was 0.1 fold, the Bias factor [1] was 0.1 and the “Log (Bias)” value [1] was −1.0 ± 0.3. The “log (τ/KA)” value [1] was −2.5 ± 0.2 and the “Δlog (τ/KA)” value [1] was −2.6 ± 0.2.
